In article PMC3498355, “Isomeric Mono-, Di-, and Tri-Bromobenzo-1H-Triazoles as Inhibitors of Human Protein Kinase CK2α” (PLoS ONE, 2012):
Read-outs that look alike come from different tables or passages of the source.

Columns and labels:
[1] = design: method as in PMID 20734498, PMID 22632480; conditions: ab initio, calculated previously; cited from earlier work
[2] = design: method as in PMID 20734498, PMID 22632480; conditions: experimental, aqueous medium; cited from earlier work
human CK2α = biological target: T1, human CK2α (Homo sapiens, UniProt P68400); assay: CK2α activity, P81 filter isotopic assay (inhibition, IC50); type: biochemical
T1 construct: CK2α was from KinaseDetect Aps; purchased KinaseDetect Aps
Experimental: CK2α activity was monitored using the P81 filter isotopic assay. The reaction mixture contained 20 mM Tris-HCl, pH 7.5, 20 mM MgCl2, 20 µM DTT, 20 µM peptide substrate, 0.5 mM β-glycerol, 0.1 mM EGTA, 10 µM ATP (200–300 cpm/pmol) and CK2α (0.4 µg/µl). The reaction was initiated with enzyme in a total volume of 50 µl, and incubated at 30°C for 20 min. 10 µl of a reaction mixture was spotted onto a P81 filter. The filter papers were washed 3× with 0.6% phosphoric acid, once with 95% ethanol, then counted in a scintillation counter (Canberra-Packard).
ATP, and Cmax and Cmin are the asymptotic values.

[3] = design: method as in PMID 20734498, PMID 22632480; conditions: ab initio, calculated previously; cited from earlier work; remark: listed apart in the source
[4] = design: method as in PMID 20734498, PMID 22632480; conditions: cited from earlier work; for Cw (aqueous solubility): experimental
protein kinase CK2 = conditions: cited from earlier work
[5] = 10 µM ATP, 20 µM peptide substrate, pH 7.5, 30°C, 20 min
[6] = acidic solution, compared with neutral pH

T1 sequence (P68400 whole entry): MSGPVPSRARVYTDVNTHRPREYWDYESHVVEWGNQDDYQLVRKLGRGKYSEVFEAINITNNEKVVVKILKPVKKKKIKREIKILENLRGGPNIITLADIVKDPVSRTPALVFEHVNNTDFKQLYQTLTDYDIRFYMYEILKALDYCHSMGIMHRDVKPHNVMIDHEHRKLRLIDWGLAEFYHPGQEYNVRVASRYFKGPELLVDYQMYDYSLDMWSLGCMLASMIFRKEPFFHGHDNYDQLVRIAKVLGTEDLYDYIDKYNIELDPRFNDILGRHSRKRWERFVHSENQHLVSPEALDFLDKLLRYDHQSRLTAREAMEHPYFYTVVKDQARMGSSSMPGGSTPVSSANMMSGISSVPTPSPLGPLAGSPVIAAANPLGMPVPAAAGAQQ

| SMILES | ΔGsolv (free energy of solvation of the anionic form) [1] [kcal/mol] | pKa (triazole proton dissociation) [2] | IC50 (human CK2α; [5]) [µM] | ΔGdiss (free energy of proton dissociation) [3] [kcal/mol] | Cw (aqueous solubility) [4] [µM] | further results |
| --- | --- | --- | --- | --- | --- | --- |
| Brc1cc(Br)c2nn[nH]c2c1 [4,6-Br2Bt] | -45.5 | 6.38 | 10 ± 2.2 | 54.2 | 234 |  |
| Brc1cc2[nH]nnc2c(Br)c1Br [4,5,6-Br3Bt] | -40.9 | 5.91 | 0.38 ± 0.02 | 52.3 | 62.3 | solubility (in words) [4, 6]: visibly higher; solubility (in words) ([4]; neutral pH): as low as for TBBt |
| Brc1cccc2[nH]nnc12 [4-BrBt] | -53.3 | 7.08 | 119 ± 10 | 56.7 | 3870 |  |
| Clc1c(Cl)c(Cl)c2[nH]nnc2c1Cl [4,5,6,7-tetrachloro-benzotriazole] |  |  |  |  |  | activity against CK2 (in words) (protein kinase CK2): moderate activity |
| Brc1c(Br)c(Br)c2[nH]cnc2c1Br [TBBz, 4,5,6,7-tetrabromobenzimidazole] |  |  |  |  |  | Ki (protein kinase CK2): low µM and sub-µM range; activity relative to TBBt (fold less active) (protein kinase CK2): 4 fold |
| Brc1cc2nn[nH]c2cc1Br [5,6-Br2Bt] | -44.4 | 6.93 | 0.56 ± 0.02 | 55.8 | 231 | solubility (in words) [4, 6]: visibly higher; solubility (in words) ([4]; neutral pH): as low as for TBBt |
| Brc1cc(Br)c2[nH]nnc2c1Br [4,5,7-Br3Bt] | -41.9 | 5.38 | 5.8 ± 0.9 | 52.2 | 1040 |  |
| c1ccc2[nH]nnc2c1 [Bt, benzotriazole, reference compound] | -59.9 | 8.56 | > 2000 | 59.5 | 196000 | inhibitory activity against CK2α (in words) (human CK2α): totally inactive; IC50 (human CK2α; as stated in legend of Figure 5): > 2000 µM |
| Brc1ccc(Br)c2[nH]nnc12 [4,7-Br2Bt] | -48.0 | 5.84 | 72 ± 11 | 53.4 | 1980 |  |
| Brc1ccc2[nH]nnc2c1Br [4,5-Br2Bt] | -46.8 | 6.49 | 10.6 ± 0.9 | 54.3 | 499 |  |
| Brc1c(Br)c(Br)c2[nH]nnc2c1Br [TBBt, 4,5,6,7-tetrabromobenzotriazole, reference compound] | -38.0 |  |  | 49.7 | 218 | solubility (in words) ([4]; neutral form of the ligand): very poorly soluble |
| Cc1c(C)c(C)c2[nH]nnc2c1C [4,5,6,7-tetramethyl-benzotriazole] |  |  |  |  |  | activity against CK2 (in words) (protein kinase CK2): low, but detectable, activity |
| Brc1ccc2nn[nH]c2c1 [5-BrBt] | -50.7 | 7.55 | 26 ± 3 | 58.1 | 2770 |  |
